Reference: patent US20240299359A1, “PHARMACEUTICAL COMPOSITION FOR ANIMALS CONTAINING 5-HYDROXY-METHYLIMIDAZOLIDINE-2,4-DIONE COMPOUND AS ACTIVE INGREDIENT” (KYONGBO PHARM. CO., LTD., priority 2021, published 2024)
Values joined by “and” are separate entries in the source; they are usually repeats but may differ in a detail not shown here. Equal entries are not always repeated.

Assay: 13-week repeated oral toxicity: weight measurement
Type: in vivo, beagle
Procedure: During the 13-week test period starting from the day before administration, the weight was measured a total of 15 times before administration (pre), before administration on the day of administration, and every week over the 13-week test period after the first administration at a predetermined time (remaining feed measurement time) before administration of the test substance (on every Tuesday during the test period).

CN1C(=O)NC(=O)C1O (centres unmarked) [KBP-001, 5-hydroxy-1-methylimidazolidine-2,4-dione]
Weight (200 mg/kg repeated oral (G2), female, week 0, individual animals): 9.6 (2×) and 9.1 | Weight, Mean (200 mg/kg repeated oral (G2), female, week 0, mean): 9.4 kg | Weight (200 mg/kg repeated oral (G2), female, week 1, individual animals, in kg (unit assumed)): 9.5 and 9.3 and 9.9 | Weight, Mean (200 mg/kg repeated oral (G2), female, week 1, mean): 9.6 kg | Weight (200 mg/kg repeated oral (G2), female, week 2, individual animals, in kg (unit assumed)): 9.4 and 9.2 and 9.8 | Weight, Mean (200 mg/kg repeated oral (G2), female, week 2, mean): 9.5 kg | Weight (200 mg/kg repeated oral (G2), female, week 3, individual animals, in kg (unit assumed)): 9.4 and 9.1 and 9.9 | Weight, Mean (200 mg/kg repeated oral (G2), female, week 3, mean): 9.5 kg | Weight (200 mg/kg repeated oral (G2), female, week 4, individual animals, in kg (unit assumed)): 9.7 and 9.4 and 9.9 | Weight, Mean (200 mg/kg repeated oral (G2), female, week 4, mean): 9.7 kg | Weight (200 mg/kg repeated oral (G2), female, week 5, individual animals, in kg (unit assumed)): 9.7 and 9.4 and 9.9 | Weight, Mean (200 mg/kg repeated oral (G2), female, week 5, mean): 9.7 kg | Weight (200 mg/kg repeated oral (G2), female, week 6, individual animals): 9.6 (2×) and 9.1 | Weight, Mean (200 mg/kg repeated oral (G2), female, week 6, mean): 9.4 kg | Weight (200 mg/kg repeated oral (G2), female, week 7, individual animals, in kg (unit assumed)): 9.6 and 9.3 and 9.7 | Weight, Mean (200 mg/kg repeated oral (G2), female, week 7, mean): 9.5 kg | Weight (200 mg/kg repeated oral (G2), female, week 8, individual animals, in kg (unit assumed)): 9.5 and 9.3 and 9.8 | Weight, Mean (200 mg/kg repeated oral (G2), female, week 8, mean): 9.5 kg | Weight (200 mg/kg repeated oral (G2), female, week 9, individual animals, in kg (unit assumed)): 9.6 and 9.4 and 9.9 | Weight, Mean (200 mg/kg repeated oral (G2), female, week 9, mean): 9.6 kg | Weight (200 mg/kg repeated oral (G2), female, week 10, individual animals, in kg (unit assumed)): 9.6 and 9.3 and 10.0 | Weight, Mean (200 mg/kg repeated oral (G2), female, week 10, mean): 9.6 kg | Weight (200 mg/kg repeated oral (G2), female, week 11, individual animals): 9.5 (2×) and 10.1 | Weight, Mean (200 mg/kg repeated oral (G2), female, week 11, mean): 9.7 kg | Weight (200 mg/kg repeated oral (G2), female, week 12, individual animals, in kg (unit assumed)): 9.6 and 9.5 and 10.0 | Weight, Mean (200 mg/kg repeated oral (G2), female, week 12, mean): 9.7 kg | Weight (200 mg/kg repeated oral (G2), female, week 13, individual animals, in kg (unit assumed)): 9.7 and 9.5 and 10.2 | Weight, Mean (200 mg/kg repeated oral (G2), female, week 13, mean): 9.8 kg | Weight (200 mg/kg repeated oral (G2), female, week pre, individual animals): 9.6 (2×) and 9.1 | Weight, Mean (200 mg/kg repeated oral (G2), female, week pre, mean): 9.4 kg | Weight (200 mg/kg repeated oral (G2), male, week 0, individual animals): 10.1 (2×) and 10.2 | Weight, Mean (200 mg/kg repeated oral (G2), male, week 0, mean): 10.1 kg | Weight (200 mg/kg repeated oral (G2), male, week 1, individual animals): 10.1 (2×) and 10.2 | Weight, Mean (200 mg/kg repeated oral (G2), male, week 1, mean): 10.1 kg | Weight (200 mg/kg repeated oral (G2), male, week 2, individual animals, in kg (unit assumed)): 9.9 and 10.1 and 10.0 | Weight, Mean (200 mg/kg repeated oral (G2), male, week 2, mean): 10 kg | Weight (200 mg/kg repeated oral (G2), male, week 3, individual animals): 10.0 and 10.1 (2×) | Weight, Mean (200 mg/kg repeated oral (G2), male, week 3, mean): 10.1 kg | Weight (200 mg/kg repeated oral (G2), male, week 4, individual animals): 10.0 and 10.3 (2×) | Weight, Mean (200 mg/kg repeated oral (G2), male, week 4, mean): 10.2 kg | Weight (200 mg/kg repeated oral (G2), male, week 5, individual animals, in kg (unit assumed)): 10.1 and 10.5 and 10.3 | Weight, Mean (200 mg/kg repeated oral (G2), male, week 5, mean): 10.3 kg | Weight (200 mg/kg repeated oral (G2), male, week 6, individual animals, in kg (unit assumed)): 10.0 and 10.1 and 10.3 | Weight, Mean (200 mg/kg repeated oral (G2), male, week 6, mean): 10.1 kg | Weight (200 mg/kg repeated oral (G2), male, week 7, individual animals): 10.1 and 10.3 (2×) | Weight, Mean (200 mg/kg repeated oral (G2), male, week 7, mean): 10.2 kg | Weight (200 mg/kg repeated oral (G2), male, week 8, individual animals, in kg (unit assumed)): 10.1 and 10.3 and 10.2 | Weight, Mean (200 mg/kg repeated oral (G2), male, week 8, mean): 10.2 kg | Weight (200 mg/kg repeated oral (G2), male, week 9, individual animals, in kg (unit assumed)): 10.1 and 10.4 and 10.3 | Weight, Mean (200 mg/kg repeated oral (G2), male, week 9, mean): 10.3 kg | Weight (200 mg/kg repeated oral (G2), male, week 10, individual animals, in kg (unit assumed)): 10.2 and 10.4 and 10.3 | Weight, Mean (200 mg/kg repeated oral (G2), male, week 10, mean): 10.3 kg | Weight (200 mg/kg repeated oral (G2), male, week 11, individual animals, in kg (unit assumed)): 10.1 and 10.4 and 10.3 | Weight, Mean (200 mg/kg repeated oral (G2), male, week 11, mean): 10.3 kg | Weight (200 mg/kg repeated oral (G2), male, week 12, individual animals): 10.2 (2×) and 10.4 | Weight, Mean (200 mg/kg repeated oral (G2), male, week 12, mean): 10.3 kg | Weight (200 mg/kg repeated oral (G2), male, week 13, individual animals): 10.2 (2×) and 10.4 | Weight, Mean (200 mg/kg repeated oral (G2), male, week 13, mean): 10.3 kg | Weight (200 mg/kg repeated oral (G2), male, week pre, individual animals, in kg (unit assumed)): 10.1 and 10.3 and 10.2 | Weight, Mean (200 mg/kg repeated oral (G2), male, week pre, mean): 10.2 kg | Weight, Mean (500 mg/kg repeated oral (G3), female, week 0, mean): 9.5 kg | Weight, Mean (500 mg/kg repeated oral (G3), female, week 1, mean): 9.6 kg | Weight, Mean (500 mg/kg repeated oral (G3), female, week 2, mean): 9.5 kg | Weight, Mean (500 mg/kg repeated oral (G3), female, week 3, mean): 9.6 kg | Weight, Mean (500 mg/kg repeated oral (G3), female, week 4, mean): 9.8 kg | Weight, Mean (500 mg/kg repeated oral (G3), female, week 5, mean): 9.8 kg | Weight, Mean (500 mg/kg repeated oral (G3), female, week 6, mean): 9.8 kg | Weight, Mean (500 mg/kg repeated oral (G3), female, week 7, mean): 9.8 kg | Weight, Mean (500 mg/kg repeated oral (G3), female, week 8, mean): 9.8 kg | Weight, Mean (500 mg/kg repeated oral (G3), female, week 9, mean): 9.8 kg | Weight, Mean (500 mg/kg repeated oral (G3), female, week 10, mean): 9.8 kg | Weight, Mean (500 mg/kg repeated oral (G3), female, week 11, mean): 9.9 kg | Weight, Mean (500 mg/kg repeated oral (G3), female, week 12, mean): 9.9 kg | Weight, Mean (500 mg/kg repeated oral (G3), female, week 13, mean): 10 kg | Weight, Mean (500 mg/kg repeated oral (G3), female, week pre, mean): 9.5 kg | Weight (500 mg/kg repeated oral (G3), male, week 0, individual animals, in kg (unit assumed)): 10.0 | Weight, Mean (500 mg/kg repeated oral (G3), male, week 0, mean): 9.9 kg | Weight, Mean (500 mg/kg repeated oral (G3), male, week 1, mean): 10 kg | Weight, Mean (500 mg/kg repeated oral (G3), male, week 2, mean): 9.9 kg | Weight, Mean (500 mg/kg repeated oral (G3), male, week 3, mean): 9.9 kg | Weight, Mean (500 mg/kg repeated oral (G3), male, week 4, mean): 10 kg | Weight, Mean (500 mg/kg repeated oral (G3), male, week 5, mean): 10.1 kg | Weight (500 mg/kg repeated oral (G3), male, week 6, individual animals, in kg (unit assumed)): 10.1 | Weight, Mean (500 mg/kg repeated oral (G3), male, week 6, mean): 10.1 kg | Weight (500 mg/kg repeated oral (G3), male, week 7, individual animals, in kg (unit assumed)): 10.1 | Weight, Mean (500 mg/kg repeated oral (G3), male, week 7, mean): 10.1 kg | Weight (500 mg/kg repeated oral (G3), male, week 8, individual animals, in kg (unit assumed)): 10.3 | Weight, Mean (500 mg/kg repeated oral (G3), male, week 8, mean): 10.1 kg | Weight (500 mg/kg repeated oral (G3), male, week 9, individual animals, in kg (unit assumed)): 10.4 | Weight, Mean (500 mg/kg repeated oral (G3), male, week 9, mean): 10.1 kg | Weight (500 mg/kg repeated oral (G3), male, week 10, individual animals, in kg (unit assumed)): 10.4 | Weight, Mean (500 mg/kg repeated oral (G3), male, week 10, mean): 10.2 kg | Weight (500 mg/kg repeated oral (G3), male, week 11, individual animals, in kg (unit assumed)): 10.4 | Weight, Mean (500 mg/kg repeated oral (G3), male, week 11, mean): 10.1 kg | Weight (500 mg/kg repeated oral (G3), male, week 12, individual animals, in kg (unit assumed)): 10.3 | Weight, Mean (500 mg/kg repeated oral (G3), male, week 12, mean): 10.2 kg | Weight (500 mg/kg repeated oral (G3), male, week 13, individual animals, in kg (unit assumed)): 10.5 | Weight, Mean (500 mg/kg repeated oral (G3), male, week 13, mean): 10.3 kg | Weight (500 mg/kg repeated oral (G3), male, week pre, individual animals, in kg (unit assumed)): 10.1 | Weight, Mean (500 mg/kg repeated oral (G3), male, week pre, mean): 10 kg | Weight, Mean (1,000 mg/kg repeated oral (G4), female, week 0, mean): 9.4 kg | Weight, Mean (1,000 mg/kg repeated oral (G4), female, week 1, mean): 9.4 kg | Weight, Mean (1,000 mg/kg repeated oral (G4), female, week 2, mean): 9.3 kg | Weight, Mean (1,000 mg/kg repeated oral (G4), female, week 3, mean): 9.4 kg | Weight, Mean (1,000 mg/kg repeated oral (G4), female, week 4, mean): 9.6 kg | Weight, Mean (1,000 mg/kg repeated oral (G4), female, week 5, mean): 9.5 kg | Weight, Mean (1,000 mg/kg repeated oral (G4), female, week 6, mean): 9.4 kg | Weight, Mean (1,000 mg/kg repeated oral (G4), female, week 7, mean): 9.4 kg | Weight, Mean (1,000 mg/kg repeated oral (G4), female, week 8, mean): 9.5 kg | Weight, Mean (1,000 mg/kg repeated oral (G4), female, week 9, mean): 9.7 kg | Weight, Mean (1,000 mg/kg repeated oral (G4), female, week 10, mean): 0.8 kg | Weight, Mean (1,000 mg/kg repeated oral (G4), female, week 11, mean): 9.8 kg | Weight, Mean (1,000 mg/kg repeated oral (G4), female, week 12, mean): 9.8 kg | Weight, Mean (1,000 mg/kg repeated oral (G4), female, week 13, mean): 9.8 kg | Weight, Mean (1,000 mg/kg repeated oral (G4), female, week pre, mean): 9.4 kg | Weight, Mean (1,000 mg/kg repeated oral (G4), male, week 0, mean): 10.2 kg | Weight, Mean (1,000 mg/kg repeated oral (G4), male, week 1, mean): 10.2 kg | Weight, Mean (1,000 mg/kg repeated oral (G4), male, week 2, mean): 10.1 kg | Weight, Mean (1,000 mg/kg repeated oral (G4), male, week 3, mean): 10 kg | Weight, Mean (1,000 mg/kg repeated oral (G4), male, week 4, mean): 10.2 kg | Weight, Mean (1,000 mg/kg repeated oral (G4), male, week 5, mean): 10.3 kg | Weight, Mean (1,000 mg/kg repeated oral (G4), male, week 6, mean): 10 kg | Weight, Mean (1,000 mg/kg repeated oral (G4), male, week 7, mean): 10.1 kg | Weight, Mean (1,000 mg/kg repeated oral (G4), male, week 8, mean): 10.1 kg | Weight, Mean (1,000 mg/kg repeated oral (G4), male, week 9, mean): 10.2 kg | Weight, Mean (1,000 mg/kg repeated oral (G4), male, week 10, mean): 10.2 kg | Weight, Mean (1,000 mg/kg repeated oral (G4), male, week 11, mean): 10.2 kg | Weight, Mean (1,000 mg/kg repeated oral (G4), male, week 12, mean): 10.2 kg | Weight, Mean (1,000 mg/kg repeated oral (G4), male, week 13, mean): 10.2 kg | Weight, Mean (1,000 mg/kg repeated oral (G4), male, week pre, mean): 10.2 kg | weight compared with control group (repeated oral once a day for 13 weeks, male and female): no significant differences in weight from the control group was observed
